According to publication PMC2678238 (Journal of biological inorganic chemistry : JBIC : a …, 2009):
Like-named read-outs stand apart in the source and are kept apart here.

Tests used:
[1] = target: T1, Co(II)-loaded PfMetAP-II (Pyrococcus furiosus, UniProt P56218); assay: Enzymatic assay of MetAP; type: biochemical
[2] = target: T2, Co(II)-loaded EcMetAP-I (Escherichia coli, UniProt P0AE18); assay: Enzymatic assay of MetAP; type: biochemical
[3] = target: T1, Co(II)-loaded PfMetAP-II; assay: Isothermal titration calorimetry; type: binding; settings: for n (stoichiometry): ITC fit; for TΔS / ΔG: from ITC via Gibbs relationship
[4] = target: T3, Mn(II)-loaded PfMetAP-II (Pyrococcus furiosus, UniProt P56218); assay: Isothermal titration calorimetry; type: binding; settings: for fold stronger binding (Kd) to Co(II)-loaded than Mn(II)-loaded PfMetAP-II: ITC Kd Mn(II)-loaded vs Co(II)-loaded PfMetAP-II; for n (stoichiometry): ITC fit
T3 sequence (P56218 whole entry): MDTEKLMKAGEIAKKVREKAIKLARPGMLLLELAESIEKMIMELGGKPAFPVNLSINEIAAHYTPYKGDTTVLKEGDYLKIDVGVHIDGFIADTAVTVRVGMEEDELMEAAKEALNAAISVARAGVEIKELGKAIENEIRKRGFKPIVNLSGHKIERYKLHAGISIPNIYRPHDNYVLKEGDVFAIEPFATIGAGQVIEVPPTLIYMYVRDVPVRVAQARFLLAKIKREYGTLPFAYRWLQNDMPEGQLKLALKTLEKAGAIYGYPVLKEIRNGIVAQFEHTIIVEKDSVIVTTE

[5] = target: T2, Co(II)-loaded EcMetAP-I; assay: Isothermal titration calorimetry; type: binding; settings: for n (stoichiometry): ITC fit; for TΔS / ΔG: from ITC via Gibbs relationship
[6] = target: T4, Mn(II)-loaded EcMetAP-I (Escherichia coli, UniProt P0AE18); assay: Isothermal titration calorimetry; type: binding; settings: for fold stronger binding (Kd) to Co(II)-loaded than Mn(II)-loaded EcMetAP-I: ITC Kd Mn(II)-loaded vs Co(II)-loaded EcMetAP-I; for n (stoichiometry): ITC fit
T4 sequence (P0AE18 whole entry): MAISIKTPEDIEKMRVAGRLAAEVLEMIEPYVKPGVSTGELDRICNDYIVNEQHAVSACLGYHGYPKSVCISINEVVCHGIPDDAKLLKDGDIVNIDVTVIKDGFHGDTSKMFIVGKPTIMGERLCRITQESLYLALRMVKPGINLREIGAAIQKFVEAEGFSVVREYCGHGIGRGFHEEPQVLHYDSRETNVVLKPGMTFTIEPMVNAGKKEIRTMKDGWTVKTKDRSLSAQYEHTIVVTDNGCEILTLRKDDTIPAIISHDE

[7] = system: Co(II)-loaded HsMetAP-II; settings: in words; cited from earlier work
[8] = system: Mn(II)-loaded HsMetAP-II; settings: in words; cited from earlier work
[9] = target: T3, Mn(II)-loaded PfMetAP-II; assay: Enzymatic assay of MetAP; type: biochemical
[10] = target: T4, Mn(II)-loaded EcMetAP-I; assay: Enzymatic assay of MetAP; type: biochemical
[11] = [MnMn(PfMetAP-II)], from ITC via Gibbs relationship
[12] = [MnMn(EcMetAP-I)], from ITC via Gibbs relationship

T2 sequence (P0AE18 whole entry): as above
T1 sequence (P56218 whole entry): as the sequence (P56218 whole entry) above

| SMILES | n (stoichiometry) ([3]; [CoCo(PfMetAP-II)]) | TΔS ([3]; [CoCo(PfMetAP-II)]) [J/mol] | ΔG ([3]; [CoCo(PfMetAP-II)]) [kJ/mol] | fold stronger binding (Kd) to Co(II)-loaded than Mn(II)-loaded PfMetAP-II [4] | n (stoichiometry) ([4]; [MnMn(PfMetAP-II)]) | ΔG [4, 11] [kJ/mol] | n (stoichiometry) ([5]; [CoCo(EcMetAP-I)]) | TΔS ([5]; [CoCo(EcMetAP-I)]) [J/mol] | ΔG ([5]; [CoCo(EcMetAP-I)]) [kJ/mol] | fold stronger binding (Kd) to Co(II)-loaded than Mn(II)-loaded EcMetAP-I [6] | n (stoichiometry) ([6]; [MnMn(EcMetAP-I)]) | ΔG [6, 12] [kJ/mol] | inhibition of Co(II)-loaded HsMetAP-II [7] | other results |
| --- | --- | --- | --- | --- | --- | --- | --- | --- | --- | --- | --- | --- | --- | --- |
| CCSCC[C@@H](N)C(O)C(=O)N[C@@H](C)c1cccc2ccccc12 (mixture of isomers) [A-311263, ((2RS,3R)-3-amino-2-hydroxy-5-ethylthio)pentanoyl-((S)-(−)-(1-naphthyl)ethyl)amide] | 1 | 21000 | -36.2 | approximately 58 fold | 1 | -26.1 | 1 | 33000 | -32 | approximately 21 fold | 1 | -24.5 | equally well | Ki ([1]; [CoCo(PfMetAP-II)], competitive inhibition fit, substrate MGMM): 2000 nM; Ki ([2]; [CoCo(EcMetAP-I)], competitive inhibition fit, substrate MGMM): 3 µM; Kd ([3]; [CoCo(PfMetAP-II)], ITC, 25.0 °C, HEPES pH 7.5): 450 ± 110 nM; Kd ([4]; [MnMn(PfMetAP-II)], ITC, 25.0 °C, HEPES pH 7.5): 26 ± 5 µM; Kd ([5]; [CoCo(EcMetAP-I)], ITC, 25.0 °C, HEPES pH 7.5): 2.4 ± 0.1 µM; Kd ([6]; [MnMn(EcMetAP-I)], ITC, 25.0 °C, HEPES pH 7.5): 50 ± 5 µM; TΔS [6, 12]: 6000 J/mol; inhibition of Mn(II)-loaded HsMetAP-II [8]: equally well |
| c1ccc2cc(CSc3nnc[nH]3)ccc2c1 [A-310840, 3-((2-naphthylmethyl)sulfanyl)-4H-1,2,4-triazole] | 1 | 27000 | -32.5 | approximately 333 fold | 1 | -18.1 | 1 | 20000 | -28.5 | approximately 71 fold | 1 | -17.9 | strongly inhibits | IC50 [1]: 15 µM; Ki [1]: 3000 nM; IC50 [9]: 1 mM; Ki [9]: 440 µM; fold less potent (IC50) for Mn(II)-loaded than Co(II)-loaded PfMetAP-II ([9]; IC50 Mn(II)-loaded vs Co(II)-loaded PfMetAP-II): approximately 67 fold; IC50 [2]: 44 µM; Ki [2]: 8 µM; IC50 [10]: 1 mM; Ki [10]: 750 µM; fold less potent (IC50) for Mn(II)-loaded than Co(II)-loaded EcMetAP-I ([10]; IC50 Mn(II)-loaded vs Co(II)-loaded EcMetAP-I): approximately 23 fold; Kd [3]: 2000 ± 100 nM; Kd [4]: 666 ± 10 µM; TΔS [4, 11]: 17000 J/mol; Kd [5]: 10 ± 0.1 µM; Kd [6]: 714 ± 10 µM |
